Values of other authors, collected in US11033613B2, “Methods and compositions for treating cancer” (Memorial Sloan Kettering Cancer Center, priority 2015, dated 2021).

Tested on: CD4+ and CD8+ responses
Conditions: according to data from preclinical and phase 1 studies

Q: For SGQAYMFPNAPYLPSCLES [WT1-122A1 long], which “stimulation of CD4+ and CD8+ responses” value is on record?
A: stimulate both CD4+ and CD8+ responses
